Measurements taken from US20100152434A1, “Protein Kinase-binding Nucleosides and Associated Methods” (priority 2007, published 2010).
pIC50: −log10 of the molar value. Where two headings read alike, the source gives them in different places.

Assays:
NCI-H23 = experiment: cells; details: Homo sapiens, NCI-H23
BT-549 [1] = experiment: cells; details: Homo sapiens, BT-549
OVCAR-8 = experiment: cells; details: Homo sapiens, OVCAR-8
SK-MEL-2 = experiment: cells; details: Homo sapiens, SK-MEL-2
RXF 393 = experiment: cells; details: Homo sapiens, RXF 393
MDA-MB-435 = experiment: cells; details: Homo sapiens, MDA-MB-435
BT-549 [2] = tested on: BT-549
NCI-H460 = experiment: cells; details: Homo sapiens, NCI-H460
SK-MEL-5 [3] = tested on: SK-MEL-5
SK-MEL-5 [4] = experiment: cells; details: Homo sapiens, SK-MEL-5
IGROV1 = experiment: cells; details: Homo sapiens, IGROV-1
EKVX = experiment: cells; details: Homo sapiens
CCRF-CEM = experiment: cells; details: Homo sapiens
HCC-2998 = experiment: cells; details: Homo sapiens, HCC 2998
[5] = Log10 Concentration −4.0, Molar
[6] = Log10 Concentration −5.0, Molar
[7] = Log10 Concentration −6.0, Molar
[8] = Log10 Concentration −7.0, Molar
[9] = Log10 Concentration −8.0, Molar

## CNC(=O)NC[C@H]1O[C@@H](n2cnc3c(NC(=O)Nc4ccccc4)ncnc32)C(O[Si](C)(C)C(C)(C)C)[C@H]1O[Si](C)(C)C(C)(C)C (stereo partly drawn) [Compound 25, 2′,3′-Bis-O-(tert-butyldimethylsilyl)-5-deoxy-5′-[(N-methylcarbamoyl)amino]-N^6-(N-phenylcarbamoyl)adenosine]
NCI-H23
  GI50: 3.17 µM
  pIC50: 4.07
BT-549 [1]
  GI50: 2.92 µM
  pIC50: < 4.00
OVCAR-8
  GI50: 4.01 µM
  pIC50: < 4.00
HCT-15
  TGI: >1.00E−4 Molar
HCT-15; [5]
  Percent Growth: 6%
HCT-15; [6]
  Percent Growth: 11%
HCT-15; [7]
  Percent Growth: 100%
HCT-15; [8]
  Percent Growth: 106%
HCT-15; [9]
  Percent Growth: 105%
MALME-3M
  TGI: 9.84E−6 Molar
MALME-3M; [5]
  Percent Growth: −48%
MALME-3M; [6]
  Percent Growth: −1%
MALME-3M; [7]
  Percent Growth: 96%
MALME-3M; [8]
  Percent Growth: 88%
MALME-3M; [9]
  Percent Growth: 105%
A498
  TGI: 4.06E−6 Molar
A498; [5]
  Percent Growth: −75%
A498; [6]
  Percent Growth: −39%
A498; [7]
  Percent Growth: 90%
A498; [8]
  Percent Growth: 97%
A498; [9]
  Percent Growth: 92%
SK-MEL-2
  GI50: 2.45 µM
  pIC50: 4.55
CAKI-1
  TGI: 7.93E−6 Molar
CAKI-1; [5]
  Percent Growth: −33%
CAKI-1; [6]
  Percent Growth: −11%
CAKI-1; [7]
  Percent Growth: 96%
CAKI-1; [8]
  Percent Growth: 99%
CAKI-1; [9]
  Percent Growth: 100%
NCI-H522
  TGI: 7.14E−6 Molar
NCI-H522; [5]
  Percent Growth: −49%
NCI-H522; [6]
  Percent Growth: −15%
NCI-H522; [7]
  Percent Growth: 90%
NCI-H522; [8]
  Percent Growth: 90%
NCI-H522; [9]
  Percent Growth: 92%
RXF 393
  GI50: 2.14 µM
  pIC50: 5.12
MDA-MB-435
  GI50: 3.41 µM
  pIC50: < 4.00
BT-549 [2]
  TGI: 9.18E−6 Molar
BT-549 [2]; [5]
  Percent Growth: −35%
BT-549 [2]; [6]
  Percent Growth: −10%
BT-549 [2]; [7]
  Percent Growth: 103%
BT-549 [2]; [8]
  Percent Growth: 112%
BT-549 [2]; [9]
  Percent Growth: 113%
SNB-19
  TGI: >1.00E−4 Molar
SNB-19; [5]
  Percent Growth: 7%
SNB-19; [6]
  Percent Growth: 29%
SNB-19; [7]
  Percent Growth: 91%
SNB-19; [8]
  Percent Growth: 100%
SNB-19; [9]
  Percent Growth: 97%
NCI-H460
  GI50: 1.72 µM
  pIC50: 5.15
SK-MEL-5 [3]
  TGI: 4.75E−6 Molar
SK-MEL-5 [3]; [5]
  Percent Growth: −99%
SK-MEL-5 [3]; [6]
  Percent Growth: −42%
SK-MEL-5 [3]; [7]
  Percent Growth: 82%
SK-MEL-5 [3]; [8]
  Percent Growth: 96%
SK-MEL-5 [3]; [9]
  Percent Growth: 102%
SK-MEL-5 [4]
  GI50: 1.98 µM
  pIC50: 4.87
OVCAR-5
  TGI: 2.52E−5 Molar
OVCAR-5; [5]
  Percent Growth: −43%
OVCAR-5; [6]
  Percent Growth: 29%
OVCAR-5; [7]
  Percent Growth: 103%
OVCAR-5; [8]
  Percent Growth: 99%
OVCAR-5; [9]
  Percent Growth: 96%
SF-268
  TGI: 1.40E−5 Molar
SF-268; [5]
  Percent Growth: 45%
SF-268; [6]
  Percent Growth: 8%
SF-268; [7]
  Percent Growth: 102%
SF-268; [8]
  Percent Growth: 106%
SF-268; [9]
  Percent Growth: 104%
IGROV1
  GI50: 2.74 µM
  pIC50: < 4.00
EKVX
  GI50: 3.7 µM
  pIC50: < 4.00
CCRF-CEM
  GI50: 3.59 µM
  pIC50: < 4.00
PC-3
  TGI: >1.00E−4 Molar
PC-3; [5]
  Percent Growth: 4%
PC-3; [6]
  Percent Growth: 6%
PC-3; [7]
  Percent Growth: 83%
PC-3; [8]
  Percent Growth: 91%
PC-3; [9]
  Percent Growth: 93%
HCC-2998
  GI50: 2.02 µM
  pIC50: 5.16
UACC-257
  TGI: 2.02E−5 Molar
UACC-257; [5]
  Percent Growth: −24%
UACC-257; [6]
  Percent Growth: 11%
UACC-257; [7]
  Percent Growth: 104%
UACC-257; [8]
  Percent Growth: 100%
UACC-257; [9]
  Percent Growth: 97%
